± gives the expanded uncertainty stated by the source.
Key:
[1] = xn = mol fraction of the nth substance listed; conditions: 298.15 K, 101 kPa, Liquid; for viscosity: Capillary tube (Ostwald / Ubbelohde) method
[2] = 298.15 K, 101.33 kPa, Liquid; for viscosity: Capillary tube (Ostwald / Ubbelohde) method

CCCCC [pentane] + C1CCCCC1
[1]
Conditions	mass density [kg/m3]	viscosity [mPa·s]
x2 = 0.0437	627.56 ± 0.49	0.2065 ± 0.0025
x2 = 0.2145	653.09 ± 0.48	0.2555 ± 0.0029
x2 = 0.2955	665.44 ± 0.47	0.2828 ± 0.0031
x2 = 0.3753	677.59 ± 0.47	0.3128 ± 0.0034
x2 = 0.4595	690.43 ± 0.47	0.3503 ± 0.0037
x2 = 0.6125	713.75 ± 0.47	0.4425 ± 0.0046
x2 = 0.7048	727.81 ± 0.48	0.5146 ± 0.0052
x2 = 0.7791	739.14 ± 0.48	0.5847 ± 0.0059
x2 = 0.8514	750.15 ± 0.49	0.6591 ± 0.0066
x2 = 0.9254	761.85 ± 0.49	0.7641 ± 0.0076

Cc1ccccc1 [toluene]
[2]
Conditions	mass density [kg/m3]	viscosity [mPa·s]
–	862.19 ± 0.62	0.552 ± 0.006

CCCCC [pentane]
[2]
Conditions	mass density [kg/m3]	viscosity [mPa·s]
–	621.32 ± 0.99	0.219 ± 0.005

CCCCC [pentane] + Cc1ccccc1
[1]
Conditions	mass density [kg/m3]	viscosity [mPa·s]
x2 = 0.0415	630.69 ± 0.55	0.2029 ± 0.0026
x2 = 0.2011	668.27 ± 0.54	0.2231 ± 0.0028
x2 = 0.2799	687.21 ± 0.53	0.2386 ± 0.0029
x2 = 0.3647	707.61 ± 0.53	0.2592 ± 0.0031
x2 = 0.4341	724.3 ± 0.52	0.2786 ± 0.0033
x2 = 0.6011	764.45 ± 0.51	0.3367 ± 0.0038
x2 = 0.6821	783.95 ± 0.5	0.3688 ± 0.0041
x2 = 0.7502	800.32 ± 0.5	0.3999 ± 0.0044
x2 = 0.8213	817.43 ± 0.49	0.4371 ± 0.0047
x2 = 0.9137	840.19 ± 0.49	0.4891 ± 0.0051

C1CCCCC1 [cyclohexane]
[2]
Conditions	mass density [kg/m3]	viscosity [mPa·s]
–	773.93 ± 0.37	0.894 ± 0.007

C1CCCCC1 [cyclohexane] + Cc1ccccc1
[1]
Conditions	mass density [kg/m3]	viscosity [mPa·s]
x2 = 0.0407	776.48 ± 0.37	0.8158 ± 0.0073
x2 = 0.2018	788.44 ± 0.38	0.7133 ± 0.0066
x2 = 0.2798	794.63 ± 0.39	0.6687 ± 0.0063
x2 = 0.3613	801.33 ± 0.4	0.6305 ± 0.006
x2 = 0.4416	808.17 ± 0.41	0.6081 ± 0.0058
x2 = 0.6003	822.4 ± 0.42	0.566 ± 0.0056
x2 = 0.6784	829.75 ± 0.44	0.5534 ± 0.0055
x2 = 0.7615	837.82 ± 0.45	0.5429 ± 0.0055
x2 = 0.8396	845.63 ± 0.46	0.5395 ± 0.0055
x2 = 0.9202	853.94 ± 0.47	0.5393 ± 0.0055

— the NIST ThermoML archive (doi:10.1021/je0501944)
